We go through 20 compounds from patent publication US11225480B2, “Malic enzyme inhibitors” (SUN PHARMA ADVANCED RESEARCH COMPANY LTD, priority 2019, dated 2022).

One may read the inhibition as the percentage by which the read-out fell short of the control.

What all share (format): biochemical
In one experiment the target is T1, human ME1 enzyme (Homo sapiens, UniProt P48163).
T1 sequence (P48163 1-572): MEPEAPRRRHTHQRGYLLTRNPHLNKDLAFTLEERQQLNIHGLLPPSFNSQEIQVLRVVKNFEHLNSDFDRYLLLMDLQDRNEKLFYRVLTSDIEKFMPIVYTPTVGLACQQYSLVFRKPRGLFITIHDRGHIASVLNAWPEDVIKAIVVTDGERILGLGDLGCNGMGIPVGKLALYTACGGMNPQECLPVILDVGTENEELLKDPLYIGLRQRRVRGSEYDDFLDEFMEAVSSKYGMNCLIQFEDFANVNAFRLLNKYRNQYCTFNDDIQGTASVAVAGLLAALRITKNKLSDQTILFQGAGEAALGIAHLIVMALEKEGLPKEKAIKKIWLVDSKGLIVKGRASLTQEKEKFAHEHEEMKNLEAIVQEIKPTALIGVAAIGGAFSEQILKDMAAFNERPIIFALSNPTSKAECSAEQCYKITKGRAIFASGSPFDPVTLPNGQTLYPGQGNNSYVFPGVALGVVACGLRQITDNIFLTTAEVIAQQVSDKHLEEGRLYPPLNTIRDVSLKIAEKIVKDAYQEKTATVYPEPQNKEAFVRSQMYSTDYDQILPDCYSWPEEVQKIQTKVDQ
Nature of the experiment: ME1 inhibition assay (diaphorase/resazurin coupled fluorescence). The note with it: 10 μM compound concentration; read-out: Malic Enzyme 1 % inhibition (10 μM). The gist of the method:
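Compounds at 10 μM preincubated 15 min in 50 mM Tris-HCl pH 7.5, 10 mM MnCl2, 2 mM L-malate, 10 μM resazurin, 0.01 mg/ml diaphorase, then human ME1 added for 5 min; reaction started with NADP+ and run 2 h at room temperature. Resorufin fluorescence (ex 540/em 600 nm) normalized to enzyme-only (100%) and no-enzyme (0%) controls.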
Background: Alamar Blue is a resazurin reagent that responds to reducing activity.

Another experiment has as its target human ME2 enzyme (Homo sapiens, UniProt P23368). The experiment is described as follows: ME2 inhibition assay (diaphorase/resazurin coupled fluorescence). The note with it: 10 μM compound concentration; read-out: Malic Enzyme 2 % inhibition (10 μM). Here is the method: ME2 catalyzes the oxidative decarboxylation of malate to pyruvate with conversion of the co-factor β-NAD+ to β-NADH. In the fluorescence assay, a coupled reaction is set up where in an enzyme, Diaphorase, utilizes NADH generated by ME2, to convert the dye resazurin to a fluorescent molecule resorufin. Resorufin has a characteristic fluorescence with excitation/emission at 540/600 nm (SLAS Discov., 2017 April 1:2472555217706649).
The enzyme activity inhibition assay is set up in a 200 μL final reaction volume in a 96-well plate. As per the experimental design, 2 μL of the compounds at 100× the desired concentration (10 μM) in DMSO were added to the respective wells with 178 μL of assay buffer (50 mM Tris-HCl pH 7.5, 10 mM MnCl2, 7 mM L-malate, 50 μM Resazurin and 0.025 mg/ml Diapharose). The 96-well plate was incubated on a plate shaker at room temperature for 15 minutes protected from light. The well contents were gently mixed by adding 10 μL of 60 nM human ME2 enzyme to the wells and the plate was incubated on a shaker at room temperature for 5 minutes protected from light. Suitable ‘enzyme only’ and ‘no enzyme’ controls were included in the experiment. The enzymatic reaction was started by adding 10 μL of 2 mM β-NAD+. The reaction was gently mixed and the plate was initially left on a shaker at room temperature for −7 minutes protected from light. Later, the plate was incubated without shaking at room temperature for 2 hours. At the end of 2 hours, the fluorescence of the wells was measured at excitation 540 nm and emission 600 nm. The % enzyme activity of the compounds is obtained by normalizing the data with enzyme only (100%) and no enzyme controls (0%) using GraphPad Prism software 7.04.

Another experiment deals with T2, human ME3 enzyme (Homo sapiens, UniProt Q16798).
T2 sequence (Q16798 1-604): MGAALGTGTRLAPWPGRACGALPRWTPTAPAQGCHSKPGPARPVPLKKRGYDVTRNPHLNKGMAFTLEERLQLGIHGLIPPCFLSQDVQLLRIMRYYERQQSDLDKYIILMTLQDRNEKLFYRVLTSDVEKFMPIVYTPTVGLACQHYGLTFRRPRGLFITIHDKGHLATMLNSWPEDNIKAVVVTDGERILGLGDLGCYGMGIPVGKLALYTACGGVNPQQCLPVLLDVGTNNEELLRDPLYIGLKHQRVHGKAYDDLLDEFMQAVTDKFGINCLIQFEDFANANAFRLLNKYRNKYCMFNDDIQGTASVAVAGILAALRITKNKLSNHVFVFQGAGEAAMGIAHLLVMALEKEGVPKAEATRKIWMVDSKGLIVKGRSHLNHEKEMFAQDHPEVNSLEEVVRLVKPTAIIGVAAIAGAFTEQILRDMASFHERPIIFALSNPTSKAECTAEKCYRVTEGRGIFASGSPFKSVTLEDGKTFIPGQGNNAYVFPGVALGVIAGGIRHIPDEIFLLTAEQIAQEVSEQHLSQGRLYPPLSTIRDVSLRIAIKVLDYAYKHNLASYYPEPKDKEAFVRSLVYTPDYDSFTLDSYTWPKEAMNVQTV
The experiment is described as follows: ME3 inhibition assay (diaphorase/resazurin coupled fluorescence). The note with it: 10 μM compound concentration; read-out: Malic Enzyme 3 % inhibition (10 μM). A digest of the protocol: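 Coupled read-out: NADPH made by human ME3 (20 nM stock) drives diaphorase conversion of resazurin (50 μM) to resorufin; buffer 50 mM Tris-HCl pH 7.5, 10 mM MnCl2, 3 mM L-malate.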

Each structure is given as a SMILES string. Where a name gives a salt, the structure may show the parent alone.

human ME2 enzyme, sequence (P23368 19-584): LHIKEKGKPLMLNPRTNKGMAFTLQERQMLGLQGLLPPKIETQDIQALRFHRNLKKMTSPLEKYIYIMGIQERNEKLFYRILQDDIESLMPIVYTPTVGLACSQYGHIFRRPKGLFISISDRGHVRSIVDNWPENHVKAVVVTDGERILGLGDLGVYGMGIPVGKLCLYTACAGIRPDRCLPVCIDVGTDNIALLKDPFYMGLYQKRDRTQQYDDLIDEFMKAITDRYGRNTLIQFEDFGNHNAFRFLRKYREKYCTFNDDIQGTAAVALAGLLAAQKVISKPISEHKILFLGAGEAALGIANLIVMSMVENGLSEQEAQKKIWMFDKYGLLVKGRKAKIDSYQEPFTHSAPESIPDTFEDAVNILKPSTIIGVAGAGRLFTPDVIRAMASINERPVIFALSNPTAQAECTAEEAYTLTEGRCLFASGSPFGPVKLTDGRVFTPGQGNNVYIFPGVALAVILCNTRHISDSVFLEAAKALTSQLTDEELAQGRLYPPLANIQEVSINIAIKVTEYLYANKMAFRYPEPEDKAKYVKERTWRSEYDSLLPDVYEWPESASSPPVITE

In the case of `O=C(c1cn(CC2CC2)c2ccccc2c1=O)N1CCN(c2ccc(O)cn2)CC1` [I.59, 1-(Cyclo-propyl-methyl)-3-[4-(5-hydroxy-2-pyridyl)-piperazine-1-carbonyl]-quinolin-4-one], the inhibition at 10 µM is 70 to 89% on human ME1 enzyme, 70 to 89% at human ME2 enzyme and greater than 90% on human ME3 enzyme.
On to `O=C(C=C1c2ccccc2-c2ccccc21)N1CCN(c2ccc(O)cn2)CC1` [I.60, 2-Fluoren-9-ylidene-1-[4-(5-hydroxy-2-pyridyl)-piperazin-1-yl]ethanone], for which the inhibition at 10 µM is 70 to 89% on human ME1 enzyme, 70 to 89% at human ME2 enzyme and greater than 90% at human ME3 enzyme.
For the compound `O=C(CC1c2ccccc2-c2ccccc21)N1CCN(c2ccc(O)cn2)CC1` [I.61, 2-(9H-Fluoren-9-yl)-1-[4-(5-hydroxy-2-pyridyl)-piperazin-1-yl]ethanone], the inhibition at 10 µM on human ME1 enzyme is 70 to 89%; at human ME2 enzyme, 70 to 89%; on human ME3 enzyme, greater than 90%.
Turning to `O=C(Cc1c[nH]c2ccccc12)N1CCN(c2ccc(O)cn2)CC1` [I.62, 1-[4-(5-Hydroxy-pyridin-2-yl)-piperazin-1-yl]-2-(1H-indol-3-yl)-ethanone], the inhibition at 10 µM on human ME1 enzyme was 70 to 89%; at human ME2 enzyme, 70 to 89%; on human ME3 enzyme it was greater than 90%.
In the case of `O=C(c1c[nH]c2ncccc12)N1CCN(c2ccc(O)cn2)CC1` [I.63, [4-(5-Hydroxy-pyridin-2-yl)-piperazin-1-yl]-(1H-pyrrolo[2,3-b]pyridin-3-yl)-methanone], the values for the inhibition at 10 µM at human ME1 enzyme, at human ME2 enzyme and on human ME3 enzyme were 70 to 89%, 70 to 89% and greater than 90%, respectively.
`O=C(c1c2ccccc2cc2ccccc12)N1CCN(c2ccc(O)cn2)CC1` [I.64]: the inhibition at 10 µM on human ME1 enzyme is 70 to 89%; at human ME2 enzyme, 50 to 69%; on human ME3 enzyme, greater than 90%.
On the same counts, the results for `O=C(CCCc1ccccc1)N1CCN(c2ccc(O)cn2)CC1` [I.65, 1-[4-(5-Hydroxy-pyridin-2-yl)-piperazin-1-yl]-4-phenylbutan-1-one] are 70 to 89%, 70 to 89% and greater than 90%.
In the same order, the values of `O=C(CCc1ccncc1)N1CCN(c2ccc(O)cn2)CC1` [I.66, 1-[4-(5-Hydroxy-pyridin-2-yl)-piperazin-1-yl]-3-pyridin-4-yl-propan-1-one] are 70 to 89%, 70 to 89% and greater than 90%.
In the same order, the values of `O=C(C1Cc2ccccc2C1)N1CCN(c2ccc(O)cn2)CC1` [I.67, [4-(5-Hydroxy-pyridin-2-yl)-piperazin-1-yl]-indan-2-yl-methanone] are greater than 90%, 50 to 69% and greater than 90%.
Consider `O=C(CCCCc1ccccc1)N1CCN(c2ccc(O)cn2)CC1` [I.68, 1-[4-(5-Hydroxy-pyridin-2-yl)-piperazin-1-yl]-5-phenylpentan-1-one hydrochloride], for which the inhibition at 10 µM at human ME1 enzyme is greater than 90%; at human ME2 enzyme it was 70 to 89%; on human ME3 enzyme, greater than 90%.
Turning to `Cn1cc(C(=O)N2CCN(c3ccc(O)cn3)CC2)c(=O)c2ccccc21` [I.69, 3-[4-(5-Hydroxy-2-pyridyl)-piperazine-1-carbonyl]-1-methyl-quinolin-4-one], the inhibition at 10 µM was 70 to 89% on human ME1 enzyme, 70 to 89% at human ME2 enzyme and greater than 90% at human ME3 enzyme.
Take `O=C(O)CCCC(=O)N1CCN(c2ccc(O)cn2)CC1` [I.70, 5-[4-(5-hydroxy-2-pyridyl)piperazin-1-yl]-5-oxo-pentanoic acid]: the figures for the inhibition at 10 µM at human ME1 enzyme, at human ME2 enzyme and at human ME3 enzyme were 70 to 89%, 70 to 89% and greater than 90%, respectively.
With `Cn1cc(C(=O)N2CCN(c3ccc(O)cn3)CC2)c2ccccc21` [I.71, [4-(5-Hydroxy-pyridin-2-yl)-piperazin-1-yl]-(1-methyl-1H-indol-3-yl)-methanone], the figures for the inhibition at 10 µM at human ME1 enzyme, at human ME2 enzyme and on human ME3 enzyme were greater than 90%, 70 to 89% and greater than 90%, respectively.
`O=C(CCc1cccc(C(F)(F)F)c1)N1CCN(c2ccc(O)cn2)CC1` [I.72, 1-[4-(5-Hydroxy-pyridin-2-yl)-piperazin-1-yl]-3-(3-trifluoro-methylphenyl)-propan-1-one]: the inhibition at 10 µM was greater than 90% on human ME1 enzyme, 70 to 89% at human ME2 enzyme and greater than 90% at human ME3 enzyme.
`O=C(c1cc2ccccc2oc1=O)N1CCN(c2ccc(O)cn2)CC1` [I.73, 3-[4-(5-Hydroxy-2-pyridyl)-piperazine-1-carbonyl]-chromen-2-one]: the inhibition at 10 µM at human ME1 enzyme was 70 to 89%; at human ME2 enzyme, 70 to 89%; at human ME3 enzyme, greater than 90%.
As for `O=C(C=C(c1ccccc1)c1ccccc1)N1CCN(c2ccc(O)cn2)CC1` [I.74, 1-[4-(5-Hydroxy-2-pyridyl)-piperazin-1-yl]-3,3-diphenyl-prop-2-en-1-one], the inhibition at 10 µM on human ME1 enzyme is greater than 90%; at human ME2 enzyme it was 70 to 89%; at human ME3 enzyme, greater than 90%.
`O=C(CC(c1ccccc1)c1ccccc1)N1CCN(c2ccc(O)cn2)CC1` [I.75, 1-[4-(5-Hydroxy-2-pyridyl)-piperazin-1-yl]-3,3-diphenyl-propan-1-one]: the inhibition at 10 µM on human ME1 enzyme was greater than 90%; at human ME2 enzyme, 70 to 89%; on human ME3 enzyme, greater than 90%.
As for `O=C(CCc1ccc(Cl)c(Cl)c1)N1CCN(c2ccc(O)cn2)CC1` [I.79, 3-(3,4-Dichloro-phenyl)-1-[4-(5-hydroxy-pyridin-2-yl)-piperazin-1-yl]-propan-1-one], the inhibition at 10 µM on human ME1 enzyme, on human ME2 enzyme and at human ME3 enzyme was greater than 90% each time.
As for `Cc1cccc(Cl)c1C(=O)N1CCN(c2ccc(O)cn2)CC1` [I.80, (2-Chloro-6-methylphenyl)-[4-(5-hydroxy-pyridin-2-yl)-piperazin-1-yl]-methanone], the inhibition at 10 µM at human ME1 enzyme, at human ME2 enzyme and at human ME3 enzyme was greater than 90% each time.
Consider `O=C(CCc1ccc(Cl)cc1)N1CCN(c2ccc(O)cn2)CC1` [I.82, 3-(4-Chloro-phenyl)-1-[4-(5-hydroxy-pyridin-2-yl)-piperazin-1-yl]-propan-1-one], for which the inhibition at 10 µM at human ME1 enzyme, on human ME2 enzyme and at human ME3 enzyme was greater than 90% each time.
